Consider one compound from article PMC5560747, “Computational-experimental approach to drug-target interaction mapping: A case study on kinase inhibitors” (PLoS Computational Biology, 2017).

Holding throughout (assay): cell-free ADP-Glo Kinase Assay
What all share (format): biochemical
What all share (settings): read-out: Experimental validation pIC50 (converted)
(In general: In ADP-Glo the light output rises with the ADP produced.)

Test [1] addresses T1, AXL (Homo sapiens, UniProt P30530).
T1 sequence (P30530 26-894): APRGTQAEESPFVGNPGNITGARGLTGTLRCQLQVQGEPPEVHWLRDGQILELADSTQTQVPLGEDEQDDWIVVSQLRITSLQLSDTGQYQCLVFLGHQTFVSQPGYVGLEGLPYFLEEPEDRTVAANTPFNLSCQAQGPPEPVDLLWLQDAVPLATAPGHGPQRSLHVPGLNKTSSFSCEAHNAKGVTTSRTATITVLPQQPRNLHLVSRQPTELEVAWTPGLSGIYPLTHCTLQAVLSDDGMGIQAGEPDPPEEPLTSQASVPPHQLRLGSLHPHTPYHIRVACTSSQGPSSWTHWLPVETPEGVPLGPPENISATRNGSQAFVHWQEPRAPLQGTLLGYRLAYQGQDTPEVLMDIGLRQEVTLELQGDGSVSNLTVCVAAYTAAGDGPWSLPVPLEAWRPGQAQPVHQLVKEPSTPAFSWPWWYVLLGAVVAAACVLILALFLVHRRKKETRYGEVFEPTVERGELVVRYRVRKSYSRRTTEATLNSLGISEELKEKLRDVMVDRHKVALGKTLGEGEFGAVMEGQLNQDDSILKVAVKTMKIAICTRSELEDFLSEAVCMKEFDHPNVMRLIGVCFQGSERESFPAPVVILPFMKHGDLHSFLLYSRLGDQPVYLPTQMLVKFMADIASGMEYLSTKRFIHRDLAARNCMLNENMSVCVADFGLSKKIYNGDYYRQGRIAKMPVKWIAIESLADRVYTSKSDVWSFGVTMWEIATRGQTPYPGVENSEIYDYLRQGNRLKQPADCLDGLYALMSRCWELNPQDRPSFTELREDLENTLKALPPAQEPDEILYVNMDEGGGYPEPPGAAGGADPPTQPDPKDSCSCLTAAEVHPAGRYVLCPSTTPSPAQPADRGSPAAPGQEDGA

Test [2] concerns the target BRK (Homo sapiens, UniProt Q13882).
Test [3] deals with FYN A (Homo sapiens, UniProt P06241).
Chain of FYN A (P06241 whole entry): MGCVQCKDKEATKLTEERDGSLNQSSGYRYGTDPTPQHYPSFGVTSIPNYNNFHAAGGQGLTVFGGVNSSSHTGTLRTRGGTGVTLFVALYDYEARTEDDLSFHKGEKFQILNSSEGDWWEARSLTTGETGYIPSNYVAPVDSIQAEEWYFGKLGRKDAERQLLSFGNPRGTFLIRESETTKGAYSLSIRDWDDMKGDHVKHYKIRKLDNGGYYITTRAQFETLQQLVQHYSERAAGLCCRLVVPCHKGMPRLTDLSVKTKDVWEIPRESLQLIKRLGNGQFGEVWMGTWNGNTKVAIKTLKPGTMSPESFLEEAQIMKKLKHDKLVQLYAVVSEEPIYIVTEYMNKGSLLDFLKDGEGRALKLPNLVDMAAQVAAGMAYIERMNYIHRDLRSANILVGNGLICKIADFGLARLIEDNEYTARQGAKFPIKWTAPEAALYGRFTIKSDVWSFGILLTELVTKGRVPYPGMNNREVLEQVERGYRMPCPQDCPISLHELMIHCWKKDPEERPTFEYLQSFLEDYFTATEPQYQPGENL
For test [4], the target named is SRC (Homo sapiens, UniProt P12931).
Chain of SRC (P12931 whole entry): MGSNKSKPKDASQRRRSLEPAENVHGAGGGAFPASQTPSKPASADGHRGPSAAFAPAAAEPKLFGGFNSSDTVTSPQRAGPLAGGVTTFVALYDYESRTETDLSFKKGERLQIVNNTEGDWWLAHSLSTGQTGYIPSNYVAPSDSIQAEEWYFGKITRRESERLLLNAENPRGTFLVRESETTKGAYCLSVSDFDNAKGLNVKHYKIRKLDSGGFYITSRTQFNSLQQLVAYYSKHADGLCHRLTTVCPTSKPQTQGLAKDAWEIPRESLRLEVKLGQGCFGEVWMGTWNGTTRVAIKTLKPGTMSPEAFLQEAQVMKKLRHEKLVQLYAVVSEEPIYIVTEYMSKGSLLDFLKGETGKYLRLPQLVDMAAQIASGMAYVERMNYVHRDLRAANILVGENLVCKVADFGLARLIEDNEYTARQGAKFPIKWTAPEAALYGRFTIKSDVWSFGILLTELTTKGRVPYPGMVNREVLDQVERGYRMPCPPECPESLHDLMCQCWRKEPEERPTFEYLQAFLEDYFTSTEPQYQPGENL

Chain of BRK (Q13882 whole entry): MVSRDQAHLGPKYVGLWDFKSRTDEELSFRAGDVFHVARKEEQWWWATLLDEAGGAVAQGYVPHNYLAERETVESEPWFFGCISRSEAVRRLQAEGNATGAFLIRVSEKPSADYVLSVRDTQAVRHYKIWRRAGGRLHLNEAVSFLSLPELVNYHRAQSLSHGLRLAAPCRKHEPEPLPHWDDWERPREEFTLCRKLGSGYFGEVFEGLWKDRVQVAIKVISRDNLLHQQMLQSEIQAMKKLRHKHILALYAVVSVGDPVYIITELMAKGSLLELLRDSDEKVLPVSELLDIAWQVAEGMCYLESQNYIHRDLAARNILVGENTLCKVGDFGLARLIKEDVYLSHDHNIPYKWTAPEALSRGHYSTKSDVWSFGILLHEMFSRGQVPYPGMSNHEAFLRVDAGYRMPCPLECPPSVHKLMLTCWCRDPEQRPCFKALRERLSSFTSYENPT

Consider `COc1cc2c(Oc3ccc4[nH]c(C)cc4c3F)ncnc2cc1OCCCN1CCCC1` [Cediranib], for which the IC50 in test [1] was 3090 nM; in test [2], 166 nM; in test [3], 135 nM; in test [4] it was 724 nM.
